Results: PubChem BioAssay (NCI)
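Method: 48-hour compound exposure of cells in 96-well plates, five concentrations, linear interpolation of endpoints. GI50 = concentration required for 50% inhibition of growth. TGI: total growth inhibition.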

Key:
Test in all cases: NCI anticancer screen, dose series, 48 h
UACC-257 melanoma = tested on: UACC-257 melanoma
KM12 colon = tested on: KM12 colon
SK-MEL-2 melanoma = tested on: SK-MEL-2 melanoma
A498 renal = tested on: A498 renal
HL-60(TB) leukemia = tested on: HL-60(TB) leukemia
U251 CNS = tested on: U251 CNS
HCC-2998 colon = tested on: HCC-2998 colon
DU-145 prostate = tested on: DU-145 prostate
SW-620 colon = tested on: SW-620 colon
UACC-62 melanoma = tested on: UACC-62 melanoma
SNB-75 CNS = tested on: SNB-75 CNS
CAKI-1 renal = tested on: CAKI-1 renal
HCT-116 colon = tested on: HCT-116 colon
MDA-MB-435 = tested on: MDA-MB-435
ACHN renal = tested on: ACHN renal
SK-OV-3 ovarian = tested on: SK-OV-3 ovarian
SF-295 CNS = tested on: SF-295 CNS
OVCAR-5 ovarian = tested on: OVCAR-5 ovarian
NCI-H460 lung = tested on: NCI-H460 lung
MCF7 breast = tested on: MCF7 breast
M14 melanoma = tested on: M14 melanoma
SNB-19 CNS = tested on: SNB-19 CNS
MOLT-4 leukemia = tested on: MOLT-4 leukemia
IGROV1 ovarian = tested on: IGROV1 ovarian
CCRF-CEM leukemia = tested on: CCRF-CEM leukemia
MDA-MB-231 breast = tested on: MDA-MB-231 breast
HT29 colon = tested on: HT29 colon
EKVX NSCLC = tested on: EKVX NSCLC
LOX IMVI melanoma = tested on: LOX IMVI melanoma
UO-31 renal = tested on: UO-31 renal
SK-MEL-5 melanoma = tested on: SK-MEL-5 melanoma
SK-MEL-28 melanoma = tested on: SK-MEL-28 melanoma
NCI-H226 lung = tested on: NCI-H226 lung
MALME-3M melanoma = tested on: MALME-3M melanoma
NCI-H23 lung = tested on: NCI-H23 lung
NCI-H522 lung = tested on: NCI-H522 lung
BT-549 breast = tested on: BT-549 breast
COLO 205 colon = tested on: COLO 205 colon
MDA-N = tested on: MDA-N
NCI/ADR-RES ovarian = tested on: NCI/ADR-RES ovarian
PC-3 prostate = tested on: PC-3 prostate
T-47D breast = tested on: T-47D breast
SF-268 CNS = tested on: SF-268 CNS
HOP-62 NSCLC = tested on: HOP-62 NSCLC
SN12C renal = tested on: SN12C renal
RPMI-8226 leukemia = tested on: RPMI-8226 leukemia
SR leukemia = tested on: SR leukemia
OVCAR-3 ovarian = tested on: OVCAR-3 ovarian
HS 578T breast = tested on: HS 578T breast
A549 NSCLC = tested on: A549 NSCLC
HCT-15 colon = tested on: HCT-15 colon
SF-539 CNS = tested on: SF-539 CNS
786-0 renal = tested on: 786-0 renal
K-562 leukemia = tested on: K-562 leukemia
TK-10 renal = tested on: TK-10 renal
OVCAR-4 ovarian = tested on: OVCAR-4 ovarian
OVCAR-8 ovarian = tested on: OVCAR-8 ovarian
HOP-92 NSCLC = tested on: HOP-92 NSCLC

Compound: COc1ccc(OC2OC(COC(c3ccccc3)(c3ccc(OC)cc3)c3ccc(OC)cc3)C(O)C(O)C2O)cc1 (stereo not drawn)
- TGI (UACC-257 melanoma): 20.1 µM
- TGI (KM12 colon): 14.7 µM
- TGI (SK-MEL-2 melanoma): 15 µM
- TGI (A498 renal): 25.3 µM
- TGI (HL-60(TB) leukemia): 7.59 µM
- TGI (U251 CNS): 13.3 µM
- TGI (HCC-2998 colon): 16.4 µM
- TGI (DU-145 prostate): 35.7 µM
- TGI (SW-620 colon): 14.3 µM
- TGI (UACC-62 melanoma): 14.1 µM
- TGI (SNB-75 CNS): 14 µM
- TGI (CAKI-1 renal): 16.2 µM
- TGI (HCT-116 colon): 10.7 µM
- TGI (MDA-MB-435): 13 µM
- TGI (ACHN renal): 14.3 µM
- TGI (SK-OV-3 ovarian): 18.8 µM
- TGI (SF-295 CNS): 15 µM
- TGI (OVCAR-5 ovarian): 20.7 µM
- TGI (NCI-H460 lung): 9.21 µM
- TGI (MCF7 breast): 14.7 µM
- TGI (M14 melanoma): 7.05 µM
- TGI (SNB-19 CNS): 26.7 µM
- TGI (MOLT-4 leukemia): 4.55 µM
- TGI (IGROV1 ovarian): 20.2 µM
- TGI (CCRF-CEM leukemia): 5.39 µM
- TGI (MDA-MB-231 breast): 18.1 µM
- TGI (HT29 colon): 5.96 µM
- TGI (EKVX NSCLC): 17.3 µM
- TGI (LOX IMVI melanoma): 3.95 µM
- TGI (UO-31 renal): 4.79 µM
- TGI (SK-MEL-5 melanoma): 16.1 µM
- TGI (SK-MEL-28 melanoma): 10.1 µM
- TGI (NCI-H226 lung): 28.3 µM
- TGI (MALME-3M melanoma): 21.2 µM
- TGI (NCI-H23 lung): 15.3 µM
- TGI (NCI-H522 lung): 11.7 µM
- TGI (BT-549 breast): 27 µM
- TGI (COLO 205 colon): 9.85 µM
- TGI (MDA-N): 17.2 µM
- TGI (NCI/ADR-RES ovarian): 29.2 µM
- TGI (PC-3 prostate): 9.59 µM
- TGI (T-47D breast): 21.4 µM
- TGI (SF-268 CNS): 11 µM
- TGI (HOP-62 NSCLC): 24.5 µM
- TGI (SN12C renal): 6.59 µM
- TGI (RPMI-8226 leukemia): > 100 µM
- TGI (SR leukemia): > 100 µM
- TGI (OVCAR-3 ovarian): 14.7 µM
- TGI (HS 578T breast): 19.1 µM
- TGI (A549 NSCLC): 11.8 µM
- TGI (HCT-15 colon): 46.4 µM
- TGI (SF-539 CNS): 17 µM
- TGI (786-0 renal): 5.87 µM
- TGI (K-562 leukemia): 10.2 µM

Compound: CC1(C)OC(CP(c2ccccc2)c2ccccc2)C(CP(c2ccccc2)c2ccccc2)O1 (stereo not drawn)
- TGI (UACC-257 melanoma): > 100 µM
- TGI (KM12 colon): > 38.1 µM
- TGI (SK-MEL-2 melanoma): 10.7 µM
- TGI (TK-10 renal): > 100 µM
- TGI (OVCAR-4 ovarian): > 87.3 µM
- TGI (A498 renal): > 100 µM
- TGI (HL-60(TB) leukemia): 1.84 µM
- TGI (U251 CNS): > 100 µM
- TGI (HCC-2998 colon): > 100 µM
- TGI (DU-145 prostate): > 55.5 µM
- TGI (SW-620 colon): > 100 µM
- TGI (UACC-62 melanoma): > 100 µM
- GI50 (SNB-75 CNS): 0.865 µM
- TGI (SNB-75 CNS): 5.33 µM
- TGI (CAKI-1 renal): > 100 µM
- TGI (HCT-116 colon): > 100 µM
- TGI (MDA-MB-435): > 100 µM
- GI50 (ACHN renal): 2.98 µM
- TGI (ACHN renal): > 100 µM
- TGI (SK-OV-3 ovarian): > 100 µM
- TGI (SF-295 CNS): > 100 µM
- TGI (OVCAR-5 ovarian): 7.73 µM
- TGI (NCI-H460 lung): > 100 µM
- TGI (MCF7 breast): > 100 µM
- TGI (M14 melanoma): > 100 µM
- TGI (SNB-19 CNS): > 100 µM
- TGI (MOLT-4 leukemia): > 100 µM
- TGI (IGROV1 ovarian): > 100 µM
- TGI (CCRF-CEM leukemia): 45.5 µM
- TGI (MDA-MB-231 breast): > 100 µM
- TGI (HT29 colon): > 100 µM
- TGI (EKVX NSCLC): > 100 µM
- TGI (LOX IMVI melanoma): > 100 µM
- GI50 (UO-31 renal): 2.78 µM
- TGI (UO-31 renal): > 100 µM
- TGI (SK-MEL-5 melanoma): > 26.4 µM
- TGI (OVCAR-8 ovarian): > 100 µM
- TGI (SK-MEL-28 melanoma): > 100 µM
- TGI (NCI-H226 lung): > 100 µM
- TGI (MALME-3M melanoma): 41.1 µM
- TGI (NCI-H23 lung): > 22.5 µM
- TGI (NCI-H522 lung): > 22.7 µM
- TGI (BT-549 breast): > 100 µM
- TGI (COLO 205 colon): 2.75 µM
- TGI (MDA-N): > 28.1 µM
- TGI (NCI/ADR-RES ovarian): > 100 µM
- TGI (PC-3 prostate): > 100 µM
- GI50 (T-47D breast): 0.173 µM
- TGI (T-47D breast): 0.947 µM
- TGI (SF-268 CNS): > 100 µM
- GI50 (HOP-62 NSCLC): 0.56 µM
- TGI (HOP-62 NSCLC): > 100 µM
- TGI (SN12C renal): > 100 µM
- GI50 (RPMI-8226 leukemia): 2.75 µM
- TGI (RPMI-8226 leukemia): 14.4 µM
- TGI (HOP-92 NSCLC): > 27.7 µM
- TGI (SR leukemia): > 100 µM
- TGI (OVCAR-3 ovarian): > 100 µM
- TGI (HS 578T breast): > 100 µM
- TGI (A549 NSCLC): > 100 µM
- TGI (HCT-15 colon): > 100 µM
- TGI (SF-539 CNS): > 100 µM
- TGI (786-0 renal): > 100 µM
- TGI (K-562 leukemia): > 100 µM
